From publication PMC11062894, “Protein-based bandpass filters for controlling cellular signaling with chemical inputs” (Nature Chemical Biology, 2023)
Where “and” joins values, the source holds several entries; their conditions need not be identical. Equal entries are not always repeated.

Tests used:
Bcl2 = details: cited from earlier work
Bcl2–LD3 interaction = Bcl2–LD3 interaction (Homo sapiens, UniProt P10415); test: SPR drug competition assay, Bcl2–LD3; format: binding; details: Bcl2, Supp Fig 2d
Experimental: Drug IC50 values for disrupting heterodimers were measured on a Biacore 8K device. A 5 µM portion of analyte was mixed with 10 µM of BclXL or Bcl2 inhibitors according to the analyte. The mixtures of analyte and drug were injected onto the LD3 immobilized channel.
(§1) Binding affinities of SPR drug competition assays were calculated using three-parameter nonlinear regression in GraphPad Prism (v.8.3.0). Representative data of cell assays are presented as individual values and mean values (bars). n = 3 refers to biological replicates. All IC50 or EC50 values of cell assays reported were calculated using four-parameter nonlinear regression ± s.d. Bandpass features of cutoff concentrations and Bandwidth90% were estimated based on the curve fitted using bell-shaped curve nonlinear regression in GraphPad Prism (v.8.3.0). […]
This assay is designed to test if the drug of interest can specifically disrupt the
interaction between LD3 and BclXL/Bcl2. The drug-receptors (Bcl2, BclXL) are immobilized on the
different channels of the sensor chip, then the binding sites are saturated with LD3. […]

[1] = target: GEMS with the dual-drug-controlled (A-1155463, venetoclax) switch (Bcl2 and BclXL–LD3) in HEK293T cells (Homo sapiens, UniProt P10415); test: GEMS SEAP reporter assay, dual-drug-controlled (A-1155463, venetoclax) switch; format: cell-based; details: for SEAP (U/L): Figure 2c, OFF-phase
Description: In the first step, we sought to construct a dual-drug-controlled switch to test whether the ON and OFF switching processes can be combined in our receptor architecture. We used Bcl2 and BclXL as the orthogonal drug receptors, which interact with the LD3 protein and respond to their own specific inhibitors. In such a setting, the dual-drug-controlled switch will turn ON in response to one drug and OFF in response to the other, thus mimicking bandpass filtering behavior (Supplementary Fig. 1d). […] To test the switch behavior, we employed the generalizable extracellular molecule sensor (GEMS) platform, which senses extracellular molecules and thus regulates cell surface signaling pathways (Fig. 2a). This receptor platform is based on a mutated EpoR extracellular and transmembrane domain fused to an IL-6RB intracellular domain. Dimerization of EpoR extracellular domains is controlled by N-terminally fused inducible dimerization domains, which drive IL-6RB activation and STAT3 signaling. The Bcl2 and BclXL–LD3 complexes were fused to the extracellular EpoR domains. […] The dimerization of Bcl2 and LD3 causes EpoR extracellular domain dimerization and triggers JAK/STAT3 signaling. Active STAT3 drives the expression of a reporter protein (secreted alkaline phosphatase (SEAP)) controlled by a STAT3-dependent promoter.
(§2) HEK293T cells were seeded in a 96-well plate 24 h before transfection. The transfection mix in each well consisted of 3 ng of constitutive human CMV promoter driven mammalian STAT3 expression vector (PhCMV-STAT3-pA), 30 ng of STAT3-induced reporter expression (OStat3-PhCMVmin-SEAP-pA) and 50 ng of expression vectors for each GEMS receptor chain (PSV40-IgK-(drughigh receptor)-EpoRm-IL-6RBm-pA and PSV40-IgK-(druglow receptor-GGGGSX3-LD3)-EpoRm-IL-6RBm-pA). For the specific drughigh receptor and druglow receptor used in the different cellular assays, they are indicated as wild type or with mutations. Then, plasmid DNA was mixed with 50 μl opti-MEM (Thermo Fisher) and 600 ng of polyethyleneimine (Polysciences, catalog no. 24765-1). For drug treatment experiments, drugs were added 12 h post-transfection and incubated with cells for 24 h before the SEAP reporter detection assay.
(§3) SEAP activity (U l^−1) in cell culture supernatants was quantified by kinetic measurements at 405 nm (1 minute per measurement for 30 cycles) of absorbance increase due to phosphatase-mediated hydrolysis of para-nitrophenyl phosphate (pNPP).
Binding affinities of SPR drug competition assays were calculated using three-parameter nonlinear regression in GraphPad Prism (v.8.3.0). Representative data of cell assays are presented as individual values and mean values (bars). n = 3 refers to biological replicates. All IC50 or EC50 values of cell assays reported were calculated using four-parameter nonlinear regression ± s.d. Bandpass features of cutoff concentrations and Bandwidth90% were estimated based on the curve fitted using bell-shaped curve nonlinear regression in GraphPad Prism (v.8.3.0).

BclXL–LD3 interaction = BclXL–LD3 interaction (Homo sapiens, UniProt Q07817); test: SPR drug competition assay, BclXL–LD3; format: binding; details: for Normalization of Response units / Response units: BclXL, Supp Fig 2d
[2] = target: GEMS with the dual-drug-controlled (venetoclax, A-1155463) switch (BclXL and Bcl2–LD3) in HEK293T cells (Homo sapiens, UniProt P10415); test: GEMS SEAP reporter assay, dual-drug-controlled (venetoclax, A-1155463) switch; format: cell-based
Experimental: as §2, §3, §1

Chain of Bcl2–LD3 interaction (P10415 1-207 limits assumed): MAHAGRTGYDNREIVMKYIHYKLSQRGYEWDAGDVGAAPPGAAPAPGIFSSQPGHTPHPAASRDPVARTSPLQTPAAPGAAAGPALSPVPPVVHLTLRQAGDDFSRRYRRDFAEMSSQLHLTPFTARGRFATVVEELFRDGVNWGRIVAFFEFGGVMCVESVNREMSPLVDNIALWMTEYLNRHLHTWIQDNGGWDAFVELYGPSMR
Chain of GEMS with the dual-drug-controlled (A-1155463, venetoclax) switch (Bcl2 and BclXL–LD3) in HEK293T cells (Q07817 whole entry): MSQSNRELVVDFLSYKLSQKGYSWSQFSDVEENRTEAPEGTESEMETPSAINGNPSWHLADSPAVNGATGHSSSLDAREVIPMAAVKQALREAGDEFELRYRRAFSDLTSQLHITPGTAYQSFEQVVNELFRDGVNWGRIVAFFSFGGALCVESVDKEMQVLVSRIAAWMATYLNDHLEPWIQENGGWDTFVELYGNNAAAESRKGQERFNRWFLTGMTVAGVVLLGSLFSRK
Chain of GEMS with the dual-drug-controlled (A-1155463, venetoclax) switch (Bcl2 and BclXL–LD3) in HEK293T cells (P10415 whole entry): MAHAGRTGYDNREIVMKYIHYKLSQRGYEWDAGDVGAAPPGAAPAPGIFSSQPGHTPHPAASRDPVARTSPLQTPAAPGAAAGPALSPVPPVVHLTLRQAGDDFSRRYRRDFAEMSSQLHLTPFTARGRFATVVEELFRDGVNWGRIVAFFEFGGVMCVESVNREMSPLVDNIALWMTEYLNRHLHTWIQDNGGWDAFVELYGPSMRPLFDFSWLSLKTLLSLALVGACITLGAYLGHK
Chain of BclXL–LD3 interaction (Q07817 1-209 limits assumed): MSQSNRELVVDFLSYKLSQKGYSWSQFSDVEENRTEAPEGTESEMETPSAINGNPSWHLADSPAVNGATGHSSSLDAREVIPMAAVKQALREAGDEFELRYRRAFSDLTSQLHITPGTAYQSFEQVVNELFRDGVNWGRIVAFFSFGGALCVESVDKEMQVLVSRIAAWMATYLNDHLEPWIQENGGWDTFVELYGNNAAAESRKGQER
Chain of GEMS with the dual-drug-controlled (venetoclax, A-1155463) switch (BclXL and Bcl2–LD3) in HEK293T cells (P10415 whole entry): as the sequence (P10415 whole entry) above
Chain of GEMS with the dual-drug-controlled (venetoclax, A-1155463) switch (BclXL and Bcl2–LD3) in HEK293T cells (Q07817 whole entry, further chain): as the sequence (Q07817 whole entry) above

SMILES: CC1(C)CCC(CN2CCN(c3ccc(C(=O)NS(=O)(=O)c4ccc(NCC5CCOCC5)c([N+](=O)[O-])c4)c(Oc4cnc5[nH]ccc5c4)c3)CC2)=C(c2ccc(Cl)cc2)C1 [Venetoclax]
- affinity for Bcl2 stronger than for BclXL (Bcl2): 500 fold
- Normalization of Response units (Bcl2–LD3 interaction; V 0.01): 100.745
- Response units (Bcl2–LD3 interaction; V 0.01): 7.1398
- Normalization of Response units (Bcl2–LD3 interaction; V 0.1): 100.312
- Response units (Bcl2–LD3 interaction; V 0.1): 7.1091
- Normalization of Response units (Bcl2–LD3 interaction; V 1): 96.9409
- Response units (Bcl2–LD3 interaction; V 1): 6.8702
- Normalization of Response units (Bcl2–LD3 interaction; V 10): 93.6659
- Response units (Bcl2–LD3 interaction; V 10): 6.6381
- Normalization of Response units (Bcl2–LD3 interaction; V 100): 74.5943
- Response units (Bcl2–LD3 interaction; V 100): 5.2865
- Normalization of Response units (Bcl2–LD3 interaction; V 1000): 57.566
- Response units (Bcl2–LD3 interaction; V 1000): 4.0797
- Normalization of Response units (Bcl2–LD3 interaction; V 10000): 38.8006
- Response units (Bcl2–LD3 interaction; V 10000): 2.7498
- SEAP (U/L) ([1]; Independent repeat, Venetoclax 0.001 nM): 294.62 U/L and 313.4 U/L and 319.588 U/L
- SEAP (U/L) ([1]; Independent repeat, Venetoclax 0.01 nM): 267.156 U/L and 307.848 U/L and 300.966 U/L
- SEAP (U/L) ([1]; Independent repeat, Venetoclax 0.1 nM): 225.991 U/L and 258.444 U/L and 342.296 U/L
- SEAP (U/L) ([1]; Independent repeat, Venetoclax 1 nM): 259.474 U/L and 200.825 U/L and 300.367 U/L
- SEAP (U/L) ([1]; Independent repeat, Venetoclax 10 nM): 304.021 U/L and 256.34 U/L and 345.499 U/L
- SEAP (U/L) ([1]; Independent repeat, Venetoclax 31.6 nM): 220.194 U/L and 208.431 U/L and 268.11 U/L
- SEAP (U/L) ([1]; Independent repeat, Venetoclax 100 nM): 193.21 U/L and 194.937 U/L and 240.35 U/L
- SEAP (U/L) ([1]; Independent repeat, Venetoclax 316 nM): 87.2098 U/L and 106.113 U/L and 133.634 U/L
- SEAP (U/L) ([1]; Independent repeat, Venetoclax 1000 nM): 44.9721 U/L and 57.2365 U/L and 51.9722 U/L
- SEAP (U/L) ([1]; Representative, Venetoclax 0.001 nM): 75.3746 U/L and 89.0712 U/L and 99.0049 U/L
- SEAP (U/L) ([1]; Representative, Venetoclax 0.01 nM): 85.1657 U/L and 70.1122 U/L and 89.4923 U/L
- SEAP (U/L) ([1]; Representative, Venetoclax 0.1 nM): 81.9771 U/L and 80.9297 U/L and 78.2538 U/L
- SEAP (U/L) ([1]; Representative, Venetoclax 1 nM): 69.1909 U/L and 65.9454 U/L and 68.5076 U/L
- SEAP (U/L) ([1]; Representative, Venetoclax 10 nM): 45.3899 U/L and 45.448 U/L and 63.5072 U/L
- SEAP (U/L) ([1]; Representative, Venetoclax 31.6 nM): 23.8212 U/L and 28.0484 U/L and 21.6764 U/L
- SEAP (U/L) ([1]; Representative, Venetoclax 100 nM): 11.359 U/L and 10.3713 U/L and 12.1034 U/L
- SEAP (U/L) ([1]; Representative, Venetoclax 316 nM): 9.4797 U/L and 7.067 U/L and 8.943 U/L
- SEAP (U/L) ([1]; Representative, Venetoclax 1000 nM): 8.365 U/L and 6.996 U/L and 8.215 U/L
- shut-down of reporter gene expression ([1]; adding 1 µM venetoclax to 100 nM A-1155463): effectively shut down
- Normalization of Response units (BclXL–LD3 interaction; V 0.01): 100.685
- Response units (BclXL–LD3 interaction; V 0.01): 94.0092
- Normalization of Response units (BclXL–LD3 interaction; V 0.1): 99.7556
- Response units (BclXL–LD3 interaction; V 0.1): 93.1418
- Normalization of Response units (BclXL–LD3 interaction; V 1): 98.8448
- Response units (BclXL–LD3 interaction; V 1): 92.2914
- Normalization of Response units (BclXL–LD3 interaction; V 10): 97.5083
- Response units (BclXL–LD3 interaction; V 10): 91.0435
- Normalization of Response units (BclXL–LD3 interaction; V 100): 89.9423
- Response units (BclXL–LD3 interaction; V 100): 83.9791
- Normalization of Response units (BclXL–LD3 interaction; V 1000): 81.529
- Response units (BclXL–LD3 interaction; V 1000): 76.1236
- Normalization of Response units (BclXL–LD3 interaction; V 10000): 74.8321
- Response units (BclXL–LD3 interaction; V 10000): 69.8707
- effect on the BclXL–LD3 interaction (BclXL–LD3 interaction; SPR drug competition): not affecting
- increase in the ON phase [2]: close to tenfold
